According to paper PMC5008386, “Oridonin, a novel lysine acetyltransferases inhibitor, inhibits proliferation and induces apoptosis in gastric cancer cells through p53- and caspase-3-mediated mechanisms” (Oncotarget, 2016):

Target: T1, P300 (Homo sapiens, UniProt Q09472)
T1 construct: gene EP300
Test: fluorogenic P300 acetyltransferase assay; also [3H]-acetyl CoA autoradiography and BLI (Octet RED96) with biotinylated oridonin
Assay type: biochemical

T1 sequence (Q09472 2-2414): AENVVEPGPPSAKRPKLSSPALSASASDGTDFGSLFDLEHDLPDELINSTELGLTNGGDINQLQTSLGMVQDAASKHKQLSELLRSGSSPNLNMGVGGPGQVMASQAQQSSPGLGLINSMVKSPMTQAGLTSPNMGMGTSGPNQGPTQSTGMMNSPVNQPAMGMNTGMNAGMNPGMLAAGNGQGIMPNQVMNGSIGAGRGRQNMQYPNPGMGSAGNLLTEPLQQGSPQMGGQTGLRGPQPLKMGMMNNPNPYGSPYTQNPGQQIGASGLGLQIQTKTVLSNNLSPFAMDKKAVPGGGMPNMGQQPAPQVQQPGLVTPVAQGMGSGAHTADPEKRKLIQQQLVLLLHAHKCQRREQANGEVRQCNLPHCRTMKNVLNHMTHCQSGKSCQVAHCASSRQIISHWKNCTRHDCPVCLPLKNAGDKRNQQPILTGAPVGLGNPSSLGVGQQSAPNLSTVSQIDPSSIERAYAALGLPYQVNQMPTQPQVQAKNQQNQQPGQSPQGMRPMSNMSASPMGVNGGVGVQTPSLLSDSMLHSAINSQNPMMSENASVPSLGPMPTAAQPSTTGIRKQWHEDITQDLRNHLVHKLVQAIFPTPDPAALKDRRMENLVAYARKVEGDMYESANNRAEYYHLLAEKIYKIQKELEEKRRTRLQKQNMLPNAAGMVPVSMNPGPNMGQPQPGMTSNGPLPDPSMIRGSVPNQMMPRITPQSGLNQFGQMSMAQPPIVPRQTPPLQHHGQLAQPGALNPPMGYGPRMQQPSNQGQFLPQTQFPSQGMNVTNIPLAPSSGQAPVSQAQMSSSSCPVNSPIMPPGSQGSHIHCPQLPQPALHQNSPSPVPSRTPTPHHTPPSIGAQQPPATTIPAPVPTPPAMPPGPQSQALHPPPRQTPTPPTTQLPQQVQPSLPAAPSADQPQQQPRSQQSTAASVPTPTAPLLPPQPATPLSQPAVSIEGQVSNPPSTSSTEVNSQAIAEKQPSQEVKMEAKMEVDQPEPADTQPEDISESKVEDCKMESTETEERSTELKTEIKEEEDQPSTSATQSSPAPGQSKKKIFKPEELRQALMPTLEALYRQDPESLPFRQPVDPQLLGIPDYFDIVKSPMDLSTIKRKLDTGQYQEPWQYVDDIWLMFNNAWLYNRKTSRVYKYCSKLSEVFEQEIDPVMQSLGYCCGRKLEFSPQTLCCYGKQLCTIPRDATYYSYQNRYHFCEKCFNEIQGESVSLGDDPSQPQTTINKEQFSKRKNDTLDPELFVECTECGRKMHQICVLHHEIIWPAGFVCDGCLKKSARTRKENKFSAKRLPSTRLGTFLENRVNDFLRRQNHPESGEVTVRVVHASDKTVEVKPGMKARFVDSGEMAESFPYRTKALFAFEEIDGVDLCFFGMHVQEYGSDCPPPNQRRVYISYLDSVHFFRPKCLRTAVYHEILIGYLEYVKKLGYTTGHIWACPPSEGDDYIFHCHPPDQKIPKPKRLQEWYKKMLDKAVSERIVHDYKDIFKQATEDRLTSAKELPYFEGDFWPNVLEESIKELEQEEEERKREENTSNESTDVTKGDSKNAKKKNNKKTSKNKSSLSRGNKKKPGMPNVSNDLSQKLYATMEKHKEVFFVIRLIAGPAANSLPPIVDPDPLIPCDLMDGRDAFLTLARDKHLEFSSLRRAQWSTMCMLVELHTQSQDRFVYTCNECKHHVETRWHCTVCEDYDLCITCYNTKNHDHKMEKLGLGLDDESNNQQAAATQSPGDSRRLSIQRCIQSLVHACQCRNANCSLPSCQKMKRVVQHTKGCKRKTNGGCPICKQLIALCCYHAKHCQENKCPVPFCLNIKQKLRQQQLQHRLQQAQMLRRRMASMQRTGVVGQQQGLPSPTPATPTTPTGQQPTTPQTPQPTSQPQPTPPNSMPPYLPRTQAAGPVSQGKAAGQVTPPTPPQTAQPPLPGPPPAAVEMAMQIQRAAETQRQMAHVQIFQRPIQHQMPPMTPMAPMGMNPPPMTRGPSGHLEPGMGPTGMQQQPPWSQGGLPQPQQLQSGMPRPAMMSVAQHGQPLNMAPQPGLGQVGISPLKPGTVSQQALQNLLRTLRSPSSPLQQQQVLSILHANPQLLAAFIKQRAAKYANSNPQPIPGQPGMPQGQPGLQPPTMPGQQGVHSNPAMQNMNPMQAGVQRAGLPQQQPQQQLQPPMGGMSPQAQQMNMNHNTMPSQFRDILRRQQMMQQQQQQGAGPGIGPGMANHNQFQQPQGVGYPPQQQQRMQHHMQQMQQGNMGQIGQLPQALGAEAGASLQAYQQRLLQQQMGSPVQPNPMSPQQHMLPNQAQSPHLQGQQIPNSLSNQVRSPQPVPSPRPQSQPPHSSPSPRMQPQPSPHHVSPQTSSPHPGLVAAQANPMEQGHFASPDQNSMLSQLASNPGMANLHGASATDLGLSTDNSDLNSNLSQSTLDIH

- IC50: ~5 µM
Compound: C=C1C(=O)[C@]23[C@H](O)[C@H]1CC[C@H]2[C@@]12CO[C@]3(O)[C@@H](O)[C@@H]1C(C)(C)CC[C@@H]2O [oridonin]
